Assay [1] has as its system Patients undergoing bilateral nerve-sparing radical retropubic prostatectomy (bnsrrp). The assay is described as follows: Randomised, double-blind placebo-controlled clinical trial: IIEF-15 scores after 4 months' treatment, bnsrrp patients. The assay is classed as in vivo, human. The protocol: (§1) To assess the activity of the combination according to the invention for the treatment of erectile dysfunction, a randomised, double-blind placebo-controlled clinical trial was conducted.
(§2) The patients entered into the trial had to meet the following inclusion criteria: • erectile dysfunction secondary to radical retropubic prostatectomy, with or without bilateral sparing of the neurovascular bundles, in patients in whom the prostatectomy had been performed at least 6 months but less than 2 years prior to entry into the clinical trial; • complete erectile function prior to the prostatectomy (this information had to be confirmed by the partner or documented in the patient's hospital file; • not on medical treatment for prostate cancer; • not on treatment for erectile dysfunction before or after prostatectomy; • normal total and free prostate antigen values; • involvement in a heterosexual relationship for at least 6 months prior to surgery.
(§3) The patients recruited into the study were divided into two main groups on the basis of whether or not they had undergone bilateral nerve sparing surgery (rrp and bnsrrp).
(§4) These two groups were further subdivided into the following subsets:
(§5) c) sildenafil 100 mg+propionyl L-carnitine 2 g+acetyl L-carnitine 2 g;
(§6) d) propionyl L-carnitine 2 g;
(§7) e) acetyl L-carnitine 2 g.
(§8) f) propionyl L-carnitine 2 g+acetyl L-carnitine 2 g;
(§9) g) sildenafil 100 mg+propionyl L-carnitine 2 g;
(§10) h) sildenafil 100 mg+acetyl L-carnitine 2 g.
(§11) The carnitines (acetyl L-carnitine and propionyl L-carnitine) were administered orally twice daily (1 g×2/day).
(§12) Sildenafil was administered (as required) and taken 1-2 hours before sexual intercourse at a dose of 100 mg.
(§13) The placebo was administered in the place of acetyl L-carnitine and/or propionyl L-carnitine and/or sildenafil.
(§14) After 4 months' treatment the following variables were analysed:
(§15) 1. erectile function (evaluated by “IIEF-15” scores: IIEF=International Index of Erectile Function);
(§16) 2. satisfaction with sexual intercourse (IIEF-15);
(§17) 4. general sexual well-being (IIEF-15);

Assay [2] shares this test system. The assay is described as follows: Clinical trial: recording of nocturnal penile tumescence (NPT) with RigiScan, bnsrrp patients. The assay is classed as in vivo, human. To be noted: total duration over three nights. The procedure:
as §1, §2, §3, §4, §5, §6, §7, §8, §9, §10, §11, §12, §13, §14
(§18) 5. recording of nocturnal penile tumescence (NPT) [evaluated with RigiScan (Dacomed-Minnesota). A >70% increase in rigidity compared to baseline at the base of the penis and >60% at the upper end of the penis, a >2 cm increase in circumference at the upper end of the penis and >3 cm at the base were considered “complete erection”. The total duration (minutes) of the recording period on three nights was assessed.

Assay [3] has as its system Patients undergoing radical retropubic prostatectomy (rrp) without bilateral sparing of the neurovascular bundles. Kind of assay: Randomised, double-blind placebo-controlled clinical trial: IIEF-15 scores after 4 months' treatment, rrp patients. To be noted: rrp patients without nerve sparing. The assay is classed as in vivo, human. The procedure:
as §1, §2, §3, §4, §5, §6, §7, §8, §9, §10, §11, §12, §13, §14, §15, §16, §17

Assay [4] has the same test system. Kind of assay: Clinical trial: recording of nocturnal penile tumescence (NPT) with RigiScan, rrp patients. The assay is classed as in vivo, human. To be noted: rrp patients without nerve sparing, total duration over three nights. The procedure: as §1, §2, §3, §4, §5, §6, §7, §8, §9, §10, §11, §12, §13, §14, §18
A further assay deals with patients undergoing rrp. To be noted: cited from earlier work.
The test system of assay [5] is patients undergoing bnsrrp. As to conditions: cited from earlier work.
The mark [6] stands for this setting: after therapy (4 months' treatment).

For `CC(=O)O[C@H](CC(=O)[O-])C[N+](C)(C)C` [Acetyl L-carnitine 2 g, acetyl L-carnitine], the “Erectile function, mean ± s.d.” value is on record as 17.2 ± 3.5 IIEF 15 Score in assay [1] (setting [6]), 11.3 ± 3.8 IIEF 15 Score in assay [1] (before therapy (baseline)), 4.1 ± 1.0 IIEF 15 score in assay [3] (setting [6]) and 3.2 ± 1.1 IIEF 15 score in assay [3] (before therapy (baseline)). Besides, the “General sexual well-being, mean ± s.d.” value in assay [1] (setting [6]) is 3.9 ± 1.1 IIEF 15 score; in assay [1] (before therapy (baseline)), 2.9 ± 1.0 IIEF 15 score; in assay [3] (setting [6]), 1.2 ± 0.5 IIEF 15 score; in assay [3] (before therapy (baseline)), 1.0 ± 0.4 IIEF 15 score. Moreover, the “Orgasm, mean ± s.d.” value in assay [1] (setting [6]) was determined as 4.0 ± 0.9 IIEF 15 score; in assay [1] (before therapy (baseline)), 3.2 ± 1.1 IIEF 15 score; in assay [3] (setting [6]), 0.9 ± 0.4 IIEF 15 score; in assay [3] (before therapy (baseline)) it was 0.8 ± 0.6 IIEF 15 score. Moreover, the “Satisfaction with sexual intercourse, mean ± s.d.” value (shortened to “Satisfaction”) in assay [1] (setting [6]) was determined as 4.0 ± 1.1 IIEF 15 score; in assay [1] (before therapy (baseline)), 3.1 ± 1.1 IIEF 15 score; in assay [3] (setting [6]) it was 1.9 ± 0.6 IIEF 15 score; in assay [3] (before therapy (baseline)), 1.8 ± 0.8 IIEF 15 score. Also, the “Recording of nocturnal penile tumescence (NPT), mean ± s.d.” value (“Recording of nocturnal penile tumescence” below) stood at 79.0 ± 12.3 min in assay [2] (setting [6]), 70.8 ± 14.9 min in assay [2] (before therapy (baseline)), 38.2 ± 5.7 min in assay [4] (setting [6]) and 37.7 ± 8.8 min in assay [4] (before therapy (baseline)).
Take `CCC(=O)O[C@H](CC(=O)[O-])C[N+](C)(C)C` [Propionyl L-carnitine 2 g, propionyl L-carnitine]: the “Erectile function, mean ± s.d.” value is on record as 18.1 ± 3.2 IIEF 15 Score in assay [1] (setting [6]), 12.2 ± 3.9 IIEF 15 Score in assay [1] (before therapy (baseline)), 4.0 ± 1.1 IIEF 15 score in assay [3] (setting [6]) and 3.3 ± 1.1 IIEF 15 score in assay [3] (before therapy (baseline)). For the same molecule, the “General sexual well-being, mean ± s.d.” value amounted to 4.1 ± 0.9 IIEF 15 score in assay [1] (setting [6]), 2.9 ± 1.6 IIEF 15 score in assay [1] (before therapy (baseline)), 1.4 ± 0.5 IIEF 15 score in assay [3] (setting [6]) and 1.3 ± 0.5 IIEF 15 score in assay [3] (before therapy (baseline)). The “Orgasm, mean ± s.d.” value in assay [1] (setting [6]) was determined as 4.1 ± 1.1 IIEF 15 score; in assay [1] (before therapy (baseline)) it was 3.0 ± 1.1 IIEF 15 score; in assay [3] (setting [6]), 1.0 ± 0.3 IIEF 15 score; in assay [3] (before therapy (baseline)) it was 0.7 ± 0.3 IIEF 15 score. Besides, the “Satisfaction” value in assay [1] (setting [6]) is listed as 3.9 ± 1.1 IIEF 15 score; in assay [1] (before therapy (baseline)) it was 3.2 ± 1.2 IIEF 15 score; in assay [3] (setting [6]) it was 1.9 ± 0.6 IIEF 15 score; in assay [3] (before therapy (baseline)), 1.7 ± 0.4 IIEF 15 score. The “Recording of nocturnal penile tumescence” value was determined as 77.1 ± 16.1 min in assay [2] (setting [6]), 68.2 ± 13.5 min in assay [2] (before therapy (baseline)), 36.4 ± 5.3 min in assay [4] (setting [6]) and 35.0 ± 9.1 min in assay [4] (before therapy (baseline)).
For `CCCc1nn(C)c2c(=O)[nH]c(-c3cc(S(=O)(=O)N4CCN(C)CC4)ccc3OCC)nc12` [Sildenafil 100 mg, sildenafil], the “Erectile function, mean ± s.d.” value turned out to be 21.7 ± 6.8 IIEF 15 Score in assay [1] (setting [6]), 11.9 ± 4.0 IIEF 15 Score in assay [1] (before therapy (baseline)), 9.2 ± 1.9 IIEF 15 score in assay [3] (setting [6]) and 3.8 ± 2.9 IIEF 15 score in assay [3] (before therapy (baseline)). For the same molecule, the “General sexual well-being, mean ± s.d.” value stood at 5.4 ± 2.7 IIEF 15 score in assay [1] (setting [6]), 2.7 ± 1.0 IIEF 15 score in assay [1] (before therapy (baseline)), 2.4 ± 2.0 IIEF 15 score in assay [3] (setting [6]) and 1.1 ± 0.8 IIEF 15 score in assay [3] (before therapy (baseline)). Besides, the “Orgasm, mean ± s.d.” value in assay [1] (setting [6]) was found to be 5.9 ± 2.9 IIEF 15 score; in assay [1] (before therapy (baseline)), 3.0 ± 0.9 IIEF 15 score; in assay [3] (setting [6]), 2.2 ± 0.9 IIEF 15 score; in assay [3] (before therapy (baseline)) it was 0.9 ± 0.6 IIEF 15 score. Further, the “Satisfaction” value in assay [1] (setting [6]) was 4.8 ± 2.5 IIEF 15 score; in assay [1] (before therapy (baseline)), 3.1 ± 1.1 IIEF 15 score; in assay [3] (setting [6]) it was 2.9 ± 1.6 IIEF 15 score; in assay [3] (before therapy (baseline)), 1.3 ± 0.8 IIEF 15 score. Also, the “Recording of nocturnal penile tumescence” value in assay [2] (setting [6]) was 85.9 ± 14.3 min; in assay [2] (before therapy (baseline)), 70.4 ± 13.2 min; in assay [4] (setting [6]), 39.1 ± 7.9 min; in assay [4] (before therapy (baseline)), 37.1 ± 8.5 min. The “Patients with recovery of sexual function” value in the assay with patients undergoing rrp is recorded as “approximately 15%”; in assay [5] it was “approximately 45%”.
